Data on one compound can be found in US5105020A, “Cycloalkane derivatives” (Imperial Chemistries Industries PLC, priority 1988, dated 1992).

In assay [1] the test system is cyclooxygenase. The experiment in a line: Test b): heparinised human blood, A23187 challenge, TxB2 radioimmunoassay. The assay is classed as cell-based. As for the experimental part:
(§1) b) An in vitro assay system involving incubating a test compound with heparinised human blood, prior to challenge with the calcium ionophore A23187 and then indirectly measuring the inhibitory effects on 5-LO by assaying the amount of […] using the specific radioimmunoassay described by Carey and Forder (F. Carey and R.A. Forder, Brit. J. Pharmacol. 1985, 84, 34P) which involves the use of a protein-LTB4 conjugate produced using the procedure of Young et alia (Prostaglandins, 1983, 26(4), 605-613). The effects of a test compound on the enzyme cyclooxygenase (which is involved in the alternative metabolic pathway for arachidonic acid and gives rise to prostaglandins, thromboxanes and related metabolites) may be measured at the same time using the specific radioimmunoassay for thromboxane B2 (TxB2) described by Carey and Forder (see above). This test provides an indication of the effects of a test compound against 5-LO and also cyclooxygenase in the presence of blood cells and proteins. It permits the selectivity of the inhibitory effect on 5-LO or cyclooxygenase to be assessed.

The test system of assay [2] is 5-LO. In words: Test b): heparinised human blood, A23187 challenge, LTB4 radioimmunoassay. The format is cell-based. How it is done: as §1
The test system of assay [3] is 5-LO. In words: Test c): ex vivo assay after oral administration, A23187 challenge of blood, LTB4 radioimmunoassay. The format is in vivo. As for the experimental part:
c) An ex vivo assay system, which is a variation of test b) above, involving administration of a test compound (usually orally as the suspension produced when a solution of the test compound in dimethylsulphoxide is added to carboxymethylcellulose), blood collection, heparinisation, challenge with A23187 and radioimmunoassay of LTB4 and TxB2. This test provides an indication of the bioavailability of a test compound as an inhibitor of 5-LO or cyclooxygenase.

Molecules are shown by their SMILES.

On to `CO[C@@H]1CCC[C@]1(OC)c1cccc(OCc2ccc3ccccc3c2)c1` (relative stereo) [trans-1,2-dimethoxy-1-[3-(naphth-2-ylmethoxy)phenyl]cyclopentane], for which the 50% inhibitory concentration (IC50) in assay [1] is over 40 µM; in assay [2] it was 0.2 µM. Besides, in assay [3], the 50% effective dose (ED50) was under 100 mg/kg.

The IC50 is the concentration that gives 50% inhibition. A lower IC50 goes with inhibition by little substance. In general, ED50 refers to the dose at which the effect has come halfway, by size or by number of responders. A high value points to a need for a large dose.
